Target: acyl-coenzyme A:cholesterol acyltransferase (ACAT)
Format: biochemical, Mus musculus

`CCCCCCCCCC[Si](C)(C)CCC(=O)NC(Cc1ccc(C)cc1)c1ccccc1` (centres unmarked) [58-035] was tested, and the IC50 was 0.4 ± 0.2 µM.
`Cc1ccc(Cn2nc(C(=O)N[C@@H]3C(C)(C)[C@@H]4CC[C@@]3(C)C4)cc2-c2ccc(Cl)c(C)c2)cc1` [SR144528] gave an IC50 of 3.6 ± 1.1 µM.

Reference: PMC2665256 (Biochemical and biophysical research communications, 2009)
